Measurements taken from ChEMBL document CHEMBL1201862, “PubChem BioAssay data set” (2004).
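Results reflect a 48-hour exposure of cells in 96-well plates to compound at five concentrations. At the GI50, growth is halved.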 Activity calls are given as the source filed them. Cut-off read from the data, not from the text of the source: active = GI50 up to about 1.1 µM and inactive = higher.

Legend:
Assay in all cases: DTP human tumour cell line panel, 48 h
[1] = tested on: 786-0
[2] = tested on: A498
[3] = tested on: A549
[4] = tested on: ACHN
[5] = tested on: CAKI-1
[6] = tested on: CCRF-CEM
[7] = tested on: DU-145
[8] = tested on: EKVX
[9] = tested on: HCC 2998
[10] = tested on: HCT-116
[11] = tested on: HCT-15
[12] = tested on: HL-60
[13] = tested on: HOP-62
[14] = tested on: HOP-92
[15] = tested on: HT-29
[16] = tested on: Hs-578T
[17] = tested on: IGROV-1
[18] = tested on: K562
[19] = tested on: KM12
[20] = tested on: LOX IMVI
[21] = tested on: M14
[22] = tested on: MCF7
[23] = tested on: MDA-MB-231
[24] = tested on: MDA-MB-435
[25] = tested on: MDA-N
[26] = tested on: MOLT-4
[27] = tested on: Malme-3M
[28] = tested on: NCI-H226
[29] = tested on: NCI-H23
[30] = tested on: NCI-H460
[31] = tested on: NCI-H522
[32] = tested on: NCI/ADR-RES
[33] = tested on: OVCAR-3
[34] = tested on: OVCAR-4
[35] = tested on: OVCAR-5
[36] = tested on: OVCAR-8
[37] = tested on: RPMI-8226
[38] = tested on: RXF 393
[39] = tested on: SF-268
[40] = tested on: SF-539
[41] = tested on: SK-MEL-28
[42] = tested on: SK-MEL-5
[43] = tested on: SN12C
[44] = tested on: SNB-19
[45] = tested on: SNB-75
[46] = tested on: SR
[47] = tested on: SW-620
[48] = tested on: T47D
[49] = tested on: TK-10
[50] = tested on: U-251
[51] = tested on: UACC-257
[52] = tested on: UO-31
[53] = tested on: COLO 205
[54] = tested on: PC-3
[55] = tested on: SF-295
[56] = tested on: SK-MEL-2

Measured: GI50

COC(=O)c1cccc(C)c1C1CN=NC12Cc1c(ccc(C)c1C)C2=O (configuration not stated)
inactive: [1] 46.2 µM | [2] 58.1 µM | [3] 40.6 µM | [4] 34.4 µM | [5] 91.2 µM | [6] 26.1 µM | [7] 64.1 µM | [8] 7.14 µM | [9] 40.4 µM | [10] 22.5 µM | [12] 12.6 µM | [13] 51.6 µM | [14] 38.4 µM | [15] 25.8 µM | [16] 27.4 µM | [17] 76.4 µM | [18] 19 µM | [19] 23.3 µM | [20] > 100 µM | [21] 45.3 µM | [22] 32.5 µM | [23] 26.7 µM | [24] 35.2 µM | [25] 33.1 µM | [26] 23.6 µM | [27] 22.9 µM | [28] 81.8 µM | [29] 64.1 µM | [30] 47.6 µM | [31] 15.8 µM | [32] 33.1 µM | [33] 42.2 µM | [34] 56.9 µM | [35] > 100 µM | [36] 30.7 µM | [37] 17.3 µM | [38] 19.2 µM | [39] 61.8 µM | [40] > 100 µM | [41] 50 µM | [43] 13.6 µM | [44] 55 µM | [45] 51.5 µM | [46] 21.3 µM | [47] 29.5 µM | [48] 5.4 µM | [49] > 100 µM | [50] 56 µM | [51] > 100 µM | [52] > 100 µM
16.4 µM: [11]
active: [42] 0.102 µM

CC(C)=CCC/C(C)=C\CC/C(C)=C/CO
40.1 µM: [11]
inactive: [1] 17.4 µM | [3] > 100 µM | [4] 22.4 µM | [5] > 10 µM | [6] 19.5 µM | [53] 40.1 µM | [7] 27.1 µM | [8] 30.6 µM | [9] 22.6 µM | [10] 19.8 µM | [12] 17.1 µM | [13] 19.6 µM | [14] 10.5 µM | [15] 19.7 µM | [16] 28.8 µM | [17] 24.4 µM | [18] 19.7 µM | [19] 38.2 µM | [20] > 10 µM | [21] 16.5 µM | [22] 19.3 µM | [23] 42 µM | [24] 19.6 µM | [25] 65.6 µM | [26] 20.5 µM | [27] 18.2 µM | [28] 36.4 µM | [29] 23.8 µM | [30] > 10 µM | [31] 14.2 µM | [32] 13.7 µM | [33] 16.8 µM | [34] 26.2 µM | [35] > 100 µM | [36] 21.6 µM | [54] 41.4 µM | [37] 14.7 µM | [39] 37.2 µM | [55] 23.1 µM | [40] 21 µM | [41] 44.9 µM | [56] 16.4 µM | [42] 26.4 µM | [43] 41.1 µM | [44] 18.5 µM | [45] 31.9 µM | [46] 21.4 µM | [47] 85.9 µM | [48] 31 µM | [49] 25.7 µM | [50] 17.6 µM | [51] 36.1 µM | [52] 22.5 µM

CCC1(c2ccc(N3C(=O)c4ccccc4C3=O)cc2)CCC(=O)NC1=O (configuration not stated)
inactive: [3] > 10 µM | [4] > 10 µM | [5] > 10 µM | [53] > 10 µM | [7] > 10 µM | [8] > 10 µM | [10] > 10 µM | [14] > 10 µM | [15] > 10 µM | [17] > 10 µM | [19] > 10 µM | [21] > 10 µM | [23] > 10 µM | [24] > 10 µM | [28] > 10 µM | [29] > 10 µM | [32] > 10 µM | [33] > 10 µM | [34] > 10 µM | [35] > 10 µM | [36] > 10 µM | [54] > 10 µM | [38] > 10 µM | [39] > 10 µM | [55] > 10 µM | [40] > 10 µM | [41] > 10 µM | [42] > 10 µM | [43] > 10 µM | [44] > 10 µM | [45] > 10 µM | [47] > 10 µM | [49] > 10 µM | [50] > 10 µM | [52] > 10 µM
> 10 µM: [11]
